# Compound: CN1CCN(CC1)C2=CC(=C(C=C2)NC3=NC=C4C(=N3)N(C5=CC=CC=C5C(=O)N4C)C)OC [XMD8-85] + N=C(N)NC(=N)NCCc1ccccc1 [Phenformin] (partner 250 µM)
# Assay: relative viability (nuclei count vs DMSO), 5 days (fraction); higher = more cells survive
# Settings: first compound 0.08 µM
# Procedure, shortened: (§1)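 Lung cancer cell lines were seeded in 1536-well plates and dosed by pin tool the next day, with either a single drug or a fixed anchor-drug dose combined with five library-drug doses (not always all listed) spaced in √10 steps. Five days later, one step fixed the cells and stained their nuclei (final 0.05% Triton X-100, 1% formaldehyde, 1 ug/ml Hoechst), and nuclei were counted on 4× images. Relative viability is the nuclei count in treated wells divided by the count in vehicle wells, and each value is the median of duplicate plates.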
row,Cell Line,relative viability
1,BEN,0.275
2,CAL-12T,0.575
3,COR-L23,0.384
4,COR-L 105,0.406
5,ChaGo-K-1,0.421
6,EKVX,0.226
7,EMC-BAC-2,0.475
8,EPLC-272H,0.281
9,H3255,0.401
10,HARA,0.455
11,HCC-15,0.465
12,HCC-44,0.241
13,HCC-78,0.705
14,HCC-366,0.598
15,HCC-827,0.389
16,HOP-62,0.595
17,LC-2-ad,0.592
18,LCLC-97TM1,0.412
19,LCLC-103H,0.329
20,LOU-NH91,0.661
21,LU99A,0.816
22,LXF-289,0.524
23,NCI-H23,0.797
24,NCI-H322M,0.74
25,NCI-H358,0.301
26,NCI-H441,0.954
27,NCI-H596,0.571
28,NCI-H1563,0.65
29,NCI-H1623,0.611

# Same assay, conditions: first compound 0.253 µM
row,Cell Line,relative viability
1,201T,0.467
2,A549,0.198
3,A-427,0.268
4,ABC-1,0.245
5,BEN,0.266
6,CAL-12T,0.528
7,COR-L23,0.452
8,COR-L 105,0.445
9,ChaGo-K-1,0.533
10,EKVX,0.218
11,EMC-BAC-2,0.518
12,EPLC-272H,0.272
13,H3255,0.373
14,HARA,0.515
15,HCC-15,0.415
16,HCC-44,0.267

row,Cell Line,relative viability
1,HCC-78,0.84
2,HCC-366,0.611
3,HOP-62,0.535
4,LC-2-ad,0.55
5,LCLC-97TM1,0.412
6,LCLC-103H,0.34
7,LK-2,0.279
8,LOU-NH91,0.774
9,LU99A,0.881
10,LXF-289,0.542
11,NCI-H23,0.791
12,NCI-H358,0.314
13,NCI-H441,0.689
14,NCI-H596,0.749
15,NCI-H1563,0.609
16,NCI-H1623,0.584

# Same assay, conditions: first compound 0.8 µM
row,Cell Line,relative viability
1,201T,0.444
2,A549,0.149
3,A-427,0.346
4,ABC-1,0.248
5,BEN,0.267
6,CAL-12T,0.537
7,COR-L23,0.484
8,COR-L 105,0.453
9,ChaGo-K-1,0.493
10,EKVX,0.228
11,EPLC-272H,0.318
12,H3255,0.339
13,HARA,0.427
14,HCC-15,0.451
15,HCC-44,0.184
16,HCC-78,0.695

row,Cell Line,relative viability
1,HCC-366,0.617
2,HOP-62,0.659
3,LC-2-ad,0.611
4,LCLC-97TM1,0.451
5,LCLC-103H,0.36
6,LK-2,0.377
7,LU99A,0.858
8,LXF-289,0.525
9,NCI-H23,0.806
10,NCI-H322M,0.749
11,NCI-H358,0.312
12,NCI-H441,0.81
13,NCI-H596,0.636
14,NCI-H1563,0.63
15,NCI-H1623,0.578

# Same assay, conditions: first compound 2.53 µM
row,Cell Line,relative viability
1,201T,0.469
2,A549,0.274
3,A-427,0.335
4,ABC-1,0.234
5,BEN,0.306
6,CAL-12T,0.517
7,COR-L23,0.476
8,COR-L 105,0.432
9,ChaGo-K-1,0.512
10,EKVX,0.245
11,EMC-BAC-2,0.517
12,EPLC-272H,0.358
13,H3255,0.726
14,HARA,0.42
15,HCC-15,0.468
16,HCC-44,0.205
17,HCC-78,0.665

row,Cell Line,relative viability
1,HCC-366,0.63
2,HCC-827,0.49
3,HOP-62,0.683
4,LC-2-ad,0.595
5,LCLC-97TM1,0.471
6,LCLC-103H,0.372
7,LK-2,0.374
8,LOU-NH91,0.835
9,LU99A,0.936
10,LXF-289,0.553
11,NCI-H23,0.694
12,NCI-H322M,0.819
13,NCI-H358,0.385
14,NCI-H441,1.12
15,NCI-H596,0.709
16,NCI-H1623,0.555

# Same assay, conditions: first compound 8 µM
row,Cell Line,relative viability
1,201T,0.447
2,A549,0.193
3,A-427,0.208
4,ABC-1,0.229
5,BEN,0.258
6,CAL-12T,0.369
7,COR-L23,0.366
8,COR-L 105,0.248
9,EKVX,0.202
10,EMC-BAC-2,0.429
11,EPLC-272H,0.272
12,HARA,0.26
13,HCC-15,0.265
14,HCC-44,0.108
15,HCC-78,0.46
16,HCC-366,0.649
17,HCC-827,0.45
18,HOP-62,0.469
19,LCLC-97TM1,0.45
20,LCLC-103H,0.303
21,LK-2,0.213
22,LOU-NH91,0.523
23,LU99A,0.701
24,NCI-H23,0.774
25,NCI-H322M,0.479
26,NCI-H358,0.167
27,NCI-H441,0.571
28,NCI-H596,0.8
29,NCI-H1563,0.615

# Compound: O=C(O)C(Cc1ccccc1[N+](=O)[O-])=NNc1nc(-c2ccc(Cl)c(Cl)c2)cs1 (mixture of isomers) [4EGI-1] + N=C(N)NC(=N)NCCc1ccccc1 [Phenformin] (partner 250 µM)
# Assay: as above
# Settings: first compound 0.5 µM
# Procedure, shortened: as §1
row,Cell Line,relative viability
1,201T,0.456
2,A549,0.154
3,A-427,0.331
4,ABC-1,0.239
5,BEN,0.278
6,CAL-12T,0.578
7,COR-L23,0.49
8,COR-L 105,0.46
9,ChaGo-K-1,0.447
10,EKVX,0.223
11,EMC-BAC-2,0.664
12,EPLC-272H,0.348
13,H3255,0.424
14,HARA,0.593
15,HCC-15,0.494
16,HCC-44,0.184
17,HCC-78,0.812

row,Cell Line,relative viability
1,HCC-366,0.676
2,HCC-827,0.403
3,HOP-62,0.677
4,LC-2-ad,0.601
5,LCLC-97TM1,0.456
6,LCLC-103H,0.337
7,LK-2,0.464
8,LOU-NH91,0.742
9,LU99A,1.03
10,LXF-289,0.535
11,NCI-H23,0.884
12,NCI-H322M,0.794
13,NCI-H358,0.311
14,NCI-H441,1.04
15,NCI-H596,0.859
16,NCI-H1563,0.624
17,NCI-H1623,0.586

# Same assay, conditions: first compound 1.581 µM
row,Cell Line,relative viability
1,201T,0.475
2,A-427,0.316
3,ABC-1,0.234
4,BEN,0.267
5,CAL-12T,0.465
6,COR-L23,0.275
7,COR-L 105,0.442
8,ChaGo-K-1,0.439
9,EKVX,0.213
10,EMC-BAC-2,0.524
11,H3255,0.347
12,HARA,0.506
13,HCC-366,0.569
14,HCC-827,0.394
15,HOP-62,0.446
16,LCLC-97TM1,0.343
17,LCLC-103H,0.349
18,LU99A,0.595
19,LXF-289,0.514
20,NCI-H358,0.297
21,NCI-H441,0.76
22,NCI-H596,0.732
23,NCI-H1563,0.613
24,NCI-H1623,0.5

# Same assay, conditions: first compound 5 µM
row,Cell Line,relative viability
1,201T,0.427
2,A549,0.172
3,A-427,0.326
4,ABC-1,0.215
5,BEN,0.281
6,CAL-12T,0.609
7,COR-L23,0.429
8,COR-L 105,0.488
9,ChaGo-K-1,0.543
10,EKVX,0.234
11,EMC-BAC-2,0.612
12,EPLC-272H,0.302
13,H3255,0.385
14,HARA,0.497
15,HCC-15,0.473
16,HCC-44,0.192
17,HCC-78,0.741

row,Cell Line,relative viability
1,HCC-366,0.741
2,HCC-827,0.396
3,HOP-62,0.73
4,LC-2-ad,0.649
5,LCLC-97TM1,0.437
6,LCLC-103H,0.34
7,LK-2,0.639
8,LOU-NH91,0.703
9,LU99A,0.924
10,LXF-289,0.513
11,NCI-H23,0.763
12,NCI-H322M,0.891
13,NCI-H358,0.343
14,NCI-H441,0.919
15,NCI-H596,1.01
16,NCI-H1563,0.602
17,NCI-H1623,0.607

# Same assay, conditions: first compound 15.81 µM
row,Cell Line,relative viability
1,201T,0.45
2,A549,0.148
3,A-427,0.274
4,ABC-1,0.209
5,BEN,0.241
6,CAL-12T,0.527
7,COR-L23,0.296
8,COR-L 105,0.375
9,ChaGo-K-1,0.49
10,EKVX,0.189
11,EMC-BAC-2,0.608
12,EPLC-272H,0.273
13,H3255,0.308
14,HARA,0.41
15,HCC-15,0.47
16,HCC-44,0.118
17,HCC-78,0.668

row,Cell Line,relative viability
1,HCC-366,0.631
2,HOP-62,0.667
3,LC-2-ad,0.342
4,LCLC-97TM1,0.404
5,LCLC-103H,0.354
6,LK-2,0.437
7,LOU-NH91,0.456
8,LU99A,0.885
9,LXF-289,0.485
10,NCI-H23,0.826
11,NCI-H322M,0.689
12,NCI-H358,0.215
13,NCI-H441,0.785
14,NCI-H596,0.961
15,NCI-H1563,0.69
16,NCI-H1623,0.45

# Same assay, conditions: first compound 50 µM
row,Cell Line,relative viability
1,201T,0.428
2,A549,0.0933
3,A-427,0.156
4,ABC-1,0.171
5,BEN,0.269
6,CAL-12T,0.179
7,COR-L23,0.144
8,COR-L 105,0.31
9,ChaGo-K-1,0.351
10,EKVX,0.215
11,EMC-BAC-2,0.385
12,EPLC-272H,0.158
13,H3255,0.324
14,HARA,0.376
15,HCC-15,0.161
16,HCC-44,0.137
17,HCC-78,0.658

row,Cell Line,relative viability
1,HCC-366,0.443
2,HCC-827,0.353
3,HOP-62,0.537
4,LC-2-ad,0.265
5,LCLC-97TM1,0.375
6,LCLC-103H,0.287
7,LK-2,0.0912
8,LOU-NH91,0.534
9,LU99A,0.391
10,LXF-289,0.291
11,NCI-H23,0.706
12,NCI-H322M,0.301
13,NCI-H358,0.111
14,NCI-H441,0.183
15,NCI-H596,0.705
16,NCI-H1563,0.55
17,NCI-H1623,0.53
